In patent US20100184809A1, “Heterocyclic FXR Binding Compounds” (PHENEX PHARMACEUTICALS AG, priority 2006, published 2010):
≈ marks a conversion by molar mass, not a printed value.

Tests used:
[1] = molecular target: T1, human FXRalpha ligand binding domain (LBD) (Homo sapiens, UniProt Q96RI1); experiment: FRET activity assay (ligand mediated cofactor peptide interaction, LANCE); format: biochemical; settings: GST-FXR-LBD / biotinylated SRC-1 peptide (676-700)
T1 construct: made in house; host or cells: E. coli BL21(DE3), vector pDEST15
T1 sequence (Q96RI1 187-472 isoform Q96RI1-2): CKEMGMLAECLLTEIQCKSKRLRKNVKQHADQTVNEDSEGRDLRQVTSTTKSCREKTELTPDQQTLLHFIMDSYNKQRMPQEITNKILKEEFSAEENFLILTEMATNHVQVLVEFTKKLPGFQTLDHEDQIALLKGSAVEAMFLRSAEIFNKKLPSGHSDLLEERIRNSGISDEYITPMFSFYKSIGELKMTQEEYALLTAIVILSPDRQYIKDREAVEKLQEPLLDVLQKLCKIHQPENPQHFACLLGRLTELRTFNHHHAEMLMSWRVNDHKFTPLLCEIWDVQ
Procedure: Determination of a ligand mediated cofactor peptide interaction to quantify ligand binding to the nuclear receptor Farnesoid X Receptor (FXR) was performed as follows:
Preparation of human farnesoid X receptor (FXR) alpha ligand binding domain: The human FXRalpha ligand binding domain (LBD) was expressed in E. coli strain BL21(DE3) as an N-terminally glutathione-[…] (GST) tagged fusion protein. The DNA encoding the FXR ligand binding domain was cloned into vector pDEST15 (Invitrogen). Expression was under control of an IPTG inducible T7 promoter. The amino acid boundaries of the ligand binding domain were amino acids 187-472 of Database entry NM_005123 (RefSeq). Expression and purification of the FXR-LBD: An overnight preculture of a transformed E. coli strain was diluted 1:20 in LB-Ampicillin medium and grown at 30° C. to an optical density of OD600=0.4-0.6. Gene expression was then induced by addition of 0.5 mM IPTG. Cells were incubated an additional 6 h at 30° C., 180 rpm. Cells were collected by centrifugation (7000×g, 7 min, room temperature). Per liter of original cell culture, cells were resuspended in 10 ml lysis buffer (50 mM Glucose, 50 mM Tris pH 7.9, 1 mM EDTA and 4 mg/ml lysozyme) and left on ice for 30 min. Cells were then subjected to sonication and cell debris removed via centrifugation (22000×g, 30 min, 4° C.). Per 10 ml of supernatant 0.5 ml prewashed Glutathione 4B sepharose slurry (Qiagen) was added and the suspension kept slowly rotating for 1 h at 4° C. Glutathione 4B sepharose beads were pelleted by centrifugation (2000 g, 15 sec, 4° C.) and washed twice in wash buffer (25 mM Tris, 50 mM KCl, 4 mM MgCl2 and 1M NaCl). The pellet was resuspended in 3 ml elution buffer per liter of original culture (elution buffer: 20 mM Tris, 60 mM KCl, 5 mM MgCl2 and 80 mM glutathione added immediately prior to use as powder). The suspension was left rotating for 15 min at 4° C., the beads pelleted and eluted again with half the volume of elution buffer than the first time. The eluates were pooled and dialysed overnight in 20 mM Hepes buffer (pH 7.5) containing 60 mM KCl, 5 mM MgCl2 as well as 1 mM dithiothreitol and 10% (v/v) glycerol. The protein was analysed by SDS-Page.
The method measures the ability of putative ligands to modulate the interaction between the purified bacterial expressed FXR ligand binding domain (LBD) and a synthetic biotinylated peptide based on residues 676-700 of SRC-1 (LCD2, 676-700). The sequence of the peptide used was B-[…]-COOH where the N-terminus was biotinylated (B). The ligand binding domain (LBD) of FXR was expressed as fusion protein with GST in BL-21 cells using the vector pDEST15. Cells were lysed by sonication, and the fusion proteins purified over glutathione sepharose (Pharmacia) according to the manufacturers instructions. For screening of compounds for their influence on the FXR-peptide interaction, the Perkin Elmer LANCE technology was applied. This method relies on the binding dependent energy transfer from a donor to an acceptor fluorophor attached to the binding partner of interest. For ease of handling and reduction of background from compound fluorescence LANCE technology makes use of generic fluorophore labels and time resolved detection Assays were done in a final volume of 2 5 μl in a 384 well plate, in a Tris-based buffer (20 mM Tris-HCl pH 7,5; 60 mM KCl, 5 mM MgCl2; 35 ng/μl BSA), containing 20-60 ng/well recombinantly expressed FXR-LBD fused to GST, 200-600 nM N-terminally biotinylated peptide, representing SRC1 aminoacids 676-700, 200 ng/well Streptavidin-xIAPC conjugate(Prozyme) and 6-10 ng/well Eu W1024 antiGST (Perkin Elmer). DMSO content of the samples was kept at 1%. After generation of the assay mix and diluting the potentially FXR modulating ligands, the assay was equilibrated for one hour in the dark at room temperature in FIA-plates black 384 well (Greiner). […]

[2] = Rat microsomal stability assay; format: in vitro ADME; settings: liver microsomes, 37° C., NADPH, 45 minute, read-out: Rat liver microsome clearance
Procedure: Compound stability towards rat liver microsomes was determined as follows: The microsomes are incubated with the test compound at 37° C. in the presence of the co-factor, NADPH, which initiates the reaction. The reaction is terminated by the addition of methanol. Following centrifugation, the supernatant is analysed on the LC-MS/MS. The disappearance of test compound is monitored over a 45 minute time period. The In peak area ratio (compound peak area/internal standard peak area) is plotted against time and the gradient of the line determined. Finally, Intrinsic clearance CLint is computed by the following equations: elimination rate konstant (k)=−gradient; t1/2 (min)=0.693/k; V (μl/mg)=volume of incubation (μl)/protein in incubation (mg); CLint (μl/min/mg protein)=V*0.693/t1/2.

[3] = Aqueous solubility assay, Protocol A, nephelometry method; format: physicochemical; settings: PBS with 5% DMSO, aqueous with cosolvent or surfactant or cyclodextrin, kinetic from dmso stock, PBS pH 7.4, 5% DMSO, 23° C., 24 hours, read-out: Aqueous solubility pH 7.4
Procedure: Aqueous solubility of compounds was determined by nephelometry or by the shake-flask method as follows:
Protocol A, nephelometry method:
Solubility of compounds was measured in PBS (pH 7.4), 5% DMSO at 23° C. Nepheloskan Ascent (Thermo Electron Corporation) nephelometer was used for measurement of light scattering. Tested compounds were dissolved in DMSO to 10 mM. Prior to measurement the compounds were further diluted with PBS in the wells to final compound concentrations of 100, 70, 50, 35, 25, 17, 12 and <10 μg/ml.
The plates were incubated at room temperature for 24 hours to reach equilibrium and the scattered light was measured. Assay validation: Aqueous solubility of acetylsalicylic acid was determined to validate the assay.
The following compounds of Table 2 exemplify such solubility with “−−” meaning solubility<2 μM, “+” meaning 2 μM solubility 100 μM and “++” meaning solubility

[4] = Plasma protein binding assay (equilibrium dialysis); format: in vitro ADME; settings: 37° C., extrapolated fraction unbound
Procedure: Equilibrium dialysis is used to determine the extent of binding of a compound to plasma proteins. A semi-permeable membrane separates a protein-containing compartment from a protein-free compartment. The system is allowed to equilibrate at 37° C. The test compound present in each compartment is quantified by LC-MS/MS. The extent of binding is reported as a fraction unbound (fu) value which is calculated as fu=1−(PC−PF)/PC. PC=Test compound concentration in protein-containing compartment. PF=Test compound concentration in protein-free compartment. In addition to using whole plasma, the plasma protein binding assay can be performed using two other ratios of plasma (10% or 50% plasma in buffer v/v). The following equations are used to convert from a fraction unbound at 10% or 50% to a fraction unbound at 100%: […]

Caco-2 permeability = format: in vitro ADME; settings: human, apical to basolateral
Procedure: Caco-2 cells are widely used as an in vitro model for predicting human drug absorption. The Caco-2 cell line is derived from a human colorectal carcinoma, and when cultured, the cells spontaneously differentiate into monolayers of polarised enterocytes. The cells are seeded on Transwell™ plates and form a confluent monolayer over 20 days prior to the experiment. On day 20, the test compound is added to the apical side of the membrane and the transport of the compound across the monolayer is monitored over a 2 hour time period. To study drug efflux, it is also necessary to investigate transport of the compound from the basolateral compartment to the apical compartment. The permeability coefficient (Papp) is calculated from the following equation: […]
Where dQ/dt is the rate of permeation of the drug across the cells, CO is the donor compartment concentration at time zero and A is the area of the cell monolayer.

SMILES	IC50 [1] [µM]	microsomal CLint [2] [µL/min/mg]	melting point	solubility at 24 h [3] [µM]	fraction unbound [4]	Papp A→B at 2 h (Caco-2 permeability) [nm/s]
Cc1cc(OCc2c(-c3c(Cl)cccc3Cl)noc2C(C)C)cnc1N(C)C(=O)c1ccc(C(=O)O)cc1 [Example 26, 4-((5-((3-(2,6-dichlorophenyl)-5-isopropylisoxazol-4-yl)methoxy)-3-methylpyridin-2-yl)(methyl)carbamoyl)benzoic acid]	1 to 10	55				
CC(C)c1nnn(-c2c(Cl)cccc2Cl)c1COc1ccc(N(C)C(=O)c2ccc(C(=O)O)cc2)c(C(F)(F)F)n1 [Example 29, 4-((6-((1-(2,6-Dichlorophenyl)-4-isopropyl-1H-1,2,3-triazol-5-yl)methoxy)-2-(trifluoromethyl)pyridin-3-yl)(methyl)carbamoyl)benzoic acid]	≤ 1		218 to 219 °C			
CC(C)c1onc(-c2c(Cl)cccc2Cl)c1COc1ccc(N(C)C(=O)c2ccc(C(N)=O)cc2)c(C(F)(F)F)n1 [Example 23, N^1-(6-((3-(2,6-Dichlorophenyl)-5-isopropylisoxazol-4-yl)methoxy)-2-(trifluoromethyl)pyridin-3-yl)-N^1-methylterephthalamide]	≤ 1		229 °C (dec.)	2 to 100 (≈ 1.21 to 60.7 µg/mL)		
CC(C)c1onc(-c2c(Cl)cccc2Cl)c1COc1ccc(NCc2ccc(C(=O)O)cc2)c(C(F)(F)F)n1 [Example 27, 4-((6-((3-(2,6-Dichlorophenyl)-5-isopropylisoxazol-4-yl)methoxy)-2-(trifluoromethyl)pyridin-3-ylamino)methyl)benzoic acid]	≤ 1		259.1 to 260.1 °C			
Cc1cc(OCc2c(-c3c(Cl)cccc3Cl)noc2C(C)C)cnc1NC(=O)c1ccc(C(=O)O)cc1 [Example 19, N-(5-[3-(2,6-Dichloro-phenyl)-5-isopropyl-isoxazol-4-ylmethoxy]-3-methyl-pyridin-2-yl)-terephthalamic acid]	≤ 1	57	218 °C		0.003	
CC(C)c1onc(-c2c(Cl)cccc2Cl)c1COc1ccc(NC(=O)c2ccc(C(=O)O)cc2)c(C(F)(F)F)n1 [Example 6, N-{6-[3-(2,6-dichloro-phenyl)-5-isopropyl-isoxazol-4-ylmethoxy]-2-trifluoromethyl-pyridin-3-yl}-terephthalamic acid]	≤ 1			> 100	0.0005	340
Cc1nc(OCc2c(C(C)C)nnn2-c2c(Cl)cccc2Cl)ccc1N(C)S(=O)(=O)c1ccc(C(=O)O)cc1 [Example 30, 4-(N-(6-((1-(2,6-dichlorophenyl)-4-isopropyl-1H-1,2,3-triazol-5-yl)methoxy)-2-methylpyridin-3-yl)-N-methylsulfamoyl)benzoic acid]	≤ 1		127.8 to 128.8 °C			
Cc1onc(-c2c(Cl)cccc2Cl)c1COc1ccc(NC(=O)c2cccc(C(=O)O)c2)cc1 [Compound C, reference compound]					0.0001	6
Cc1onc(-c2c(Cl)cccc2Cl)c1COc1ccc(NC(=O)c2cccc(C(=O)O)c2)cn1 [Example 15, 3-(6-((3-(2,6-dichlorophenyl)-5-methylisoxazol-4-yl)methoxy)pyridin-3-ylcarbamoyl)benzoic acid]	1 to 10	149			0.0003	
CC(C)c1onc(-c2c(Cl)cccc2Cl)c1COc1ccc(NC(=O)c2cccc(C(=O)O)c2)c(C(F)(F)F)n1 [Example 21]	≤ 1		153.8 to 154.8 °C	> 100		
CC(C)c1onc(-c2c(Cl)cccc2Cl)c1COc1ccc(N(C)C(=O)c2ccc(C(=O)N(C)C)cc2)c(C(F)(F)F)n1 [Example 24]	≤ 1		166.8 to 167.8 °C		0.0009	460
Cc1nc(OCc2c(-c3c(Cl)cccc3Cl)noc2C(C)C)ccc1NS(=O)(=O)c1ccc(C(=O)O)cc1 [Example 3, 4-{6-[3-(2,6-Dichloro-phenyl)-5-isopropyl-isoxazol-4-ylmethoxy]-2-methyl-pyridin-3-ylsulfamoyl}-benzoic acid]	≤ 1					
